Earlier results on one compound are cited in article PMC5503534, “Stable aneuploid tumors cells are more sensitive to TTK inhibition than chromosomally unstable cell lines” (Oncotarget, 2017).

The test system of series [1] is A-172 glioblastoma cell line. The note with it: three day cell proliferation assay; cited from earlier work.
In series [2] the test system is MG-63 osteosarcoma cell line. As to conditions: three day cell proliferation assay; cited from earlier work.

What is called IC50 is the concentration at which inhibition is half-maximal. With `CCc1cccc(CC)c1NC(=O)c1ccn2c1CCc1cnc(Nc3ccc(N4CCN(C)CC4)cc3OC)nc1-2` [NTRC 0066-0], the IC50 in series [1] is 51 nM; in series [2] it was 135 nM.
